Data taken from ChEMBL document CHEMBL1772989, “Non-peptide metabolites from the genus Bacillus” (J Nat Prod, 2011).

Assays:
Pseudomonas aeruginosa = assay: Antibacterial activity against Pseudomonas aeruginosa ATCC 14210; type: functional
Staphylococcus aureus = assay: Antibacterial activity against Staphylococcus aureus ATCC 10832; type: functional

MIC (Pseudomonas aeruginosa) [µg/mL] | MIC (Staphylococcus aureus) [µg/mL] | SMILES
> 100 | > 100 | CC(C)CCCCCCCC(=O)N[C@@H](CC(N)=O)C(=O)O [LIPOAMIDE A]
> 100 | > 100 | CC(C)CCCCCCCCC(=O)N[C@@H](CC(N)=O)C(=O)O [LIPOAMIDE B]
> 100 | > 100 | CC(C)CCCCCCCCCC(=O)N[C@@H](CC(N)=O)C(=O)O [LIPOAMIDE C]
